Assay results as given in ChEMBL document CHEMBL4715855, “N-phenyl ureidobenzenesulfonates, a novel class of promising human dihydroorotate dehydrogenase inhibitors” (Bioorg Med Chem, 2020).

Columns and labels:
Format in all cases: functional, cell-based
HT-29 [1] = assay: Antiproliferative activity against human HT-29 cells assessed as cell growth inhibition measured after 48 hrs in presence of uridine by SRB assay; conditions: HT-29, 48 h
HT-1080 [2] = assay: Antiproliferative activity against human HT-1080 cells assessed as cell growth inhibition measured after 48 hrs by SRB assay; conditions: HT-1080, 48 h
MCF7 [3] = assay: Antiproliferative activity against human MCF7 cells assessed as cell growth inhibition measured after 48 hrs in presence of uridine by SRB assay; conditions: MCF7, 48 h
MCF7 [4] = assay: Antiproliferative activity against human MCF7 cells assessed as cell growth inhibition measured after 48 hrs by SRB assay; conditions: MCF7, 48 h, read-out: IC50
HT-1080 [5] = assay: Antiproliferative activity against human HT-1080 cells assessed as cell growth inhibition measured after 48 hrs in presence of uridine by SRB assay; conditions: HT-1080, 48 h
M21 [6] = assay: Antiproliferative activity against human M21 cells assessed as cell growth inhibition measured after 48 hrs in presence of uridine by SRB assay; conditions: M21, 48 h
HT-29 [7] = assay: Antiproliferative activity against human HT-29 cells assessed as cell growth inhibition measured after 48 hrs by SRB assay; conditions: HT-29, 48 h, read-out: IC50
M21 [8] = assay: Antiproliferative activity against human M21 cells assessed as cell growth inhibition measured after 48 hrs by SRB assay; conditions: M21, 48 h

IC50 (HT-29 [1]): 75 µM
IC50 (HT-1080 [2]): 30 µM
IC50 (MCF7 [3]): 57 µM
IC50 (MCF7 [4]): 55 µM
IC50 (HT-1080 [5]): 38 µM
IC50 (HT-29 [7]): 75 µM
SMILES: Cc1oncc1C(=O)Nc1ccc(C(F)(F)F)cc1 [LEFLUNOMIDE]
IC50 (M21 [6]): 83 µM
IC50 (M21 [8]): 83 µM
